Experimental data from PubChem BioAssay (NCI).
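Each compound was tested at five concentrations against cells in 96-well plates for 48 hours. Here, GI50 denotes the concentration required for 50% inhibition of growth. Definition used: TGI = concentration required for complete inhibition of growth.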

How the values were obtained:
Test in all cases: growth of human tumour cells (NCI), 48 h
[1] = tested on: 786-0 renal
[2] = tested on: A498 renal
[3] = tested on: A549 NSCLC
[4] = tested on: ACHN renal
[5] = tested on: BT-549 breast
[6] = tested on: CAKI-1 renal
[7] = tested on: CCRF-CEM leukemia
[8] = tested on: COLO 205 colon
[9] = tested on: DU-145 prostate
[10] = tested on: HCC-2998 colon
[11] = tested on: HCT-116 colon
[12] = tested on: HCT-15 colon
[13] = tested on: HL-60(TB) leukemia
[14] = tested on: HOP-62 NSCLC
[15] = tested on: HOP-92 NSCLC
[16] = tested on: HS 578T breast
[17] = tested on: HT29 colon
[18] = tested on: IGROV1 ovarian
[19] = tested on: K-562 leukemia
[20] = tested on: KM12 colon
[21] = tested on: LOX IMVI melanoma
[22] = tested on: M14 melanoma
[23] = tested on: MALME-3M melanoma
[24] = tested on: MCF7 breast
[25] = tested on: MDA-MB-231 breast
[26] = tested on: MDA-MB-435
[27] = tested on: MOLT-4 leukemia
[28] = tested on: NCI-H226 lung
[29] = tested on: NCI-H23 lung
[30] = tested on: NCI-H460 lung
[31] = tested on: NCI-H522 lung
[32] = tested on: NCI/ADR-RES ovarian
[33] = tested on: OVCAR-3 ovarian
[34] = tested on: OVCAR-4 ovarian
[35] = tested on: OVCAR-5 ovarian
[36] = tested on: OVCAR-8 ovarian
[37] = tested on: PC-3 prostate
[38] = tested on: RPMI-8226 leukemia
[39] = tested on: RXF 393 renal
[40] = tested on: SF-268 CNS
[41] = tested on: SF-295 CNS
[42] = tested on: SF-539 CNS
[43] = tested on: SK-MEL-2 melanoma
[44] = tested on: SK-MEL-28 melanoma
[45] = tested on: SK-MEL-5 melanoma
[46] = tested on: SK-OV-3 ovarian
[47] = tested on: SN12C renal
[48] = tested on: SNB-19 CNS
[49] = tested on: SNB-75 CNS
[50] = tested on: SR leukemia
[51] = tested on: SW-620 colon
[52] = tested on: T-47D breast
[53] = tested on: TK-10 renal
[54] = tested on: U251 CNS
[55] = tested on: UACC-257 melanoma
[56] = tested on: UACC-62 melanoma
[57] = tested on: UO-31 renal

## Nc1c(C(=O)c2cccc(OC[C@@H](O)CO)c2)cnn1-c1ccc(F)cc1
[1]
  GI50: > 25 µM
  TGI: > 25 µM
[2]
  GI50: > 25 µM
  TGI: > 25 µM
[3]
  GI50: > 25 µM
  TGI: > 25 µM
[4]
  GI50: > 25 µM
  TGI: > 25 µM
[5]
  GI50: > 25 µM
  TGI: > 25 µM
[6]
  GI50: > 25 µM
  TGI: > 25 µM
[7]
  GI50: > 25 µM
  TGI: > 25 µM
[8]
  GI50: > 25 µM
  TGI: > 25 µM
[9]
  GI50: > 25 µM
  TGI: > 25 µM
[10]
  GI50: > 25 µM
  TGI: > 25 µM
[11]
  GI50: > 25 µM
  TGI: > 25 µM
[12]
  GI50: > 25 µM
  TGI: > 25 µM
[13]
  GI50: > 25 µM
  TGI: > 25 µM
[14]
  GI50: > 25 µM
  TGI: > 25 µM
[15]
  GI50: > 25 µM
  TGI: > 25 µM
[16]
  GI50: > 25 µM
  TGI: > 25 µM
[17]
  GI50: > 25 µM
  TGI: > 25 µM
[18]
  GI50: > 25 µM
  TGI: > 25 µM
[19]
  GI50: > 25 µM
  TGI: > 25 µM
[20]
  GI50: > 25 µM
  TGI: > 25 µM
[21]
  GI50: > 25 µM
  TGI: > 25 µM
[22]
  GI50: > 25 µM
  TGI: > 25 µM
[23]
  GI50: > 25 µM
  TGI: > 25 µM
[24]
  GI50: > 25 µM
  TGI: > 25 µM
[25]
  GI50: > 25 µM
  TGI: > 25 µM
[26]
  GI50: > 25 µM
  TGI: > 25 µM
[27]
  GI50: > 25 µM
  TGI: > 25 µM
[28]
  GI50: > 25 µM
  TGI: > 25 µM
[29]
  GI50: > 25 µM
  TGI: > 25 µM
[30]
  GI50: > 25 µM
  TGI: > 25 µM
[31]
  GI50: > 25 µM
  TGI: > 25 µM
[32]
  GI50: > 25 µM
  TGI: > 25 µM
[33]
  GI50: > 25 µM
  TGI: > 25 µM
[34]
  GI50: > 20.9 µM
  TGI: > 25 µM
[35]
  GI50: > 25 µM
  TGI: > 25 µM
[36]
  GI50: > 25 µM
  TGI: > 25 µM
[37]
  GI50: > 25 µM
  TGI: > 25 µM
[38]
  GI50: > 25 µM
  TGI: > 25 µM
[39]
  GI50: > 25 µM
  TGI: > 25 µM
[40]
  GI50: > 25 µM
  TGI: > 25 µM
[41]
  GI50: > 25 µM
  TGI: > 25 µM
[42]
  GI50: > 25 µM
  TGI: > 25 µM
[43]
  GI50: > 25 µM
  TGI: > 25 µM
[44]
  GI50: > 25 µM
  TGI: > 25 µM
[45]
  GI50: > 25 µM
  TGI: > 25 µM
[46]
  GI50: > 25 µM
  TGI: > 25 µM
[47]
  GI50: > 25 µM
  TGI: > 25 µM
[48]
  GI50: > 25 µM
  TGI: > 25 µM
[49]
  GI50: > 25 µM
  TGI: > 25 µM
[50]
  GI50: > 25 µM
  TGI: > 25 µM
[51]
  GI50: > 25 µM
  TGI: > 25 µM
[52]
  GI50: > 25 µM
  TGI: > 25 µM
[53]
  GI50: > 25 µM
  TGI: > 25 µM
[54]
  GI50: > 25 µM
  TGI: > 25 µM
[55]
  GI50: > 25 µM
  TGI: > 25 µM
[56]
  GI50: > 25 µM
  TGI: > 25 µM
[57]
  GI50: > 25 µM
  TGI: > 25 µM
